Twelve molecules from US9328138B2 (priority 2011, dated 2016) can be followed below.

The target in test [1] is T1, HCV genotype 1b (BK) NS3 modified enzyme with a R155K mutation (Hepatitis C virus genotype 1b, UniProt P26663, R1181K).
T1 construct: HCV genotype 1b (BK) NS3 modified enzyme
As to the kind of experiment: HCV NS3 protease time-resolved fluorescence (TRF) assay, genotype 1b R155K. The test is classed as biochemical. The conditions noted are these: Ki 1b R155K. Summed up:
(§1)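 Time-resolved fluorescence, ex 340/em 615 nm, 400 μs delay; IC50 by four-parameter fit. Enzyme preincubated with compound 10 min, then TRF substrate 25 nM final added and reaction run 6 h at RT. Buffer HEPES pH 7.5 with NaCl, glycerol, Triton X-100, DTT, PEG 8000.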

The target in test [2] is HCV NS3 protease genotype 3a (3A-1) (Hepatitis C virus genotype 3a, UniProt Q81258). The experiment in a line: HCV NS3 protease time-resolved fluorescence (TRF) assay, genotype 3a. The class given is biochemical. The conditions noted are these: Ki 3a. The procedure, abridged: as §1
Setting [3] is: first of two values printed in the cell (not explained).
The mark [4] stands for this setting: second of two values printed in the cell (not explained).
Setting [5] is: genotype 1b (BK) NS3 R155K, single value.

pKi: −log10 of the molar value. Bounds are passed on as bounds.

Regarding `C=C[C@@H]1C[C@]1(NC(=O)[C@@H]1C[C@@H]2CN1C(=O)[C@H](C(C)(C)C)NC(=O)O[C@@H]1C[C@H]1CCCCCc1c(nc3ccccc3c1OC1C3COCC1CN(CCOC)C3)O2)C(=O)NS(=O)(=O)C1(C)CC1` (stereo partly drawn) [Example 261, (1aR,5S,8S,10R,22aR)-5-tert-butyl-N-[(1R,2S)-2-ethenyl-1-{[(1-methylcyclopropyl)sulfonyl]carbamoyl}cyclopropyl]-17-{[7-(2-methoxyethyl)-3-oxa-7-azabicyclo[3.3.1]non-9-yl]oxy}-3,6-dioxo-1,1a,3,4,5,6,9,10,18,19,20,21,22,22a-tetradecahydro-8H-7,10-methanocyclopropa[18,19][1,10,3,6]dioxadiazacyclononadecino[11,12-b]quinoline-8-carboxamide], the pKi was 10.59 in test [1] (setting [3]), 9.81 in test [1] (setting [4]) and 8.46 in test [2].
For `C=C[C@@H]1CC1(NC(=O)[C@@H]1C[C@@H]2CN1C(=O)[C@H](C1CCCCC1)NC(=O)O[C@@H]1C[C@H]1CCCCCc1c(nc3ccccc3c1OC1CCNCC1F)O2)C(=O)NS(=O)(=O)C1(C)CC1` (stereo in doubt) [Example 293, (3S,4R)-4-{[(1aR,5S,8S,10R,22aR)-5-cyclohexyl-8-{[(1R,2S)-2-ethenyl-1-{[(1-methylcyclopropyl)sulfonyl]carbamoyl}cyclopropyl]carbamoyl}-3,6-dioxo-1,1a,3,4,5,6,9,10,18,19,20,21,22,22a-tetradecahydro-8H-7,10-methanocyclopropa[18,19][1,10,3,6]dioxadiazacyclononadecino[11,12-b]quinolin-17-yl]oxy}-3-fluoropiperidinium chloride], in that order: 10.54, 9.86 and 8.89.
For `C=C[C@@H]1C[C@]1(NC(=O)[C@@H]1C[C@@H]2CN1C(=O)[C@H](C1CCCCC1)NC(=O)O[C@@H]1C[C@H]1CCCCCc1c(nc3ccccc3c1OC1CCN(CCS(C)(=O)=O)CC1)O2)C(=O)NS(=O)(=O)C1(C)CC1` [Example 271, (1aR,5S,8S,10R,22aR)-5-cyclohexyl-N-[(1R,2S)-2-ethenyl-1-{[(1-methylcyclopropyl)sulfonyl]carbamoyl}cyclopropyl]-17-({1-[2-(methylsulfonyl)ethyl]piperidin-4-yl}oxy)-3,6-dioxo-1,1a,3,4,5,6,9,10,18,19,20,21,22,22a-tetradecahydro-8H-7,10-methanocyclopropa[18,19][1,10,3,6]dioxadiazacyclononadecino[11,12-b]quinoline-8-carboxamide], in that order: 10.64, 9.67 and 8.28.
As for `C=C[C@@H]1C[C@]1(NC(=O)[C@@H]1C[C@@H]2CN1C(=O)[C@H](C1CCCC1)NC(=O)O[C@@H]1CCC[C@H]1CCC/C=C/Cc1c(nc3ccccc3c1O)O2)C(=O)NS(=O)(=O)C1CC1` [Example 18], the pKi was 9.10 in test [1] (setting [5]) and 7.92 in test [2].
Turning to `C=C[C@@H]1C[C@]1(NC(=O)[C@@H]1C[C@@H]2CN1C(=O)[C@H](C1CCCCC1)NC(=O)O[C@@H]1C[C@H]1CCCCCc1c(nc3ccccc3c1OC1CC3CCC(C1)N3CCOC)O2)C(=O)NS(=O)(=O)C1(C)CC1` (stereo partly drawn) [Example 284, (1aR,5S,8S,10R,22aR)-5-cyclohexyl-N-[(1R,2S)-2-ethenyl-1-{[(1-methylcyclopropyl)sulfonyl]carbamoyl}cyclopropyl]-17-{[8-(2-methoxyethyl)-8-azabicyclo[3.2.1]oct-3-yl]oxy}-3,6-dioxo-1,1a,3,4,5,6,9,10,18,19,20,21,22,22a-tetradecahydro-8H-7,10-methanocyclopropa[18,19][1,10,3,6]dioxadiazacyclononadecino[11,12-b]quinoline-8-carboxamide], the pKi in test [1] (setting [3]) is 10.64; in test [1] (setting [4]) it was 10.28; in test [2], 9.55.
For `C=C[C@@H]1C[C@]1(NC(=O)[C@@H]1C[C@@H]2CN1C(=O)[C@H](C(C)(C)C)NC(=O)O[C@@H]1C[C@H]1CCCCCc1c(nc3ccccc3c1OC1CCN(C)CC1)O2)C(=O)NS(=O)(=O)C1(C)CC1` [Example 210, (1aR,5S,8S,10R,22aR)-5-tert-butyl-N-[(1R,2S)-2-ethenyl-1-{[(1-methylcyclopropyl)sulfonyl]carbamoyl}cyclopropyl]-17-[(1-methylpiperidin-4-yl)oxy]-3,6-dioxo-1,1a,3,4,5,6,9,10,18,19,20,21,22,22a-tetradecahydro-8H-7,10-methanocyclopropa[18,19][1,10,3,6]dioxadiazacyclononadecino[11,12-b]quinoline-8-carboxamide], the pKi is 10.34 in test [1] (setting [5]) and 9.54 in test [2].
The like results for `C=C[C@@H]1C[C@]1(NC(=O)[C@@H]1C[C@@H]2CN1C(=O)[C@H](C(C)(C)C)NC(=O)O[C@@H]1C[C@H]1CCCCCc1c(nc3ccccc3c1OCCCN1CCOCC1)O2)C(=O)NS(=O)(=O)C1(C)CC1` [Example 116, (1aR,5S,8S,10R,22aR)-5-tert-butyl-N-[(1R,2S)-2-ethenyl-1-{[(1-methylcyclopropyl)sulfonyl]carbamoyl}cyclopropyl]-17-[3-(morpholin-4-yl)propoxy]-3,6-dioxo-1,1a,3,4,5,6,9,10,18,19,20,21, 22,22a-tetradeca hydro-8H-7,10-methanocyclopropa [18,19][1,10,3,6]dioxadiazacyclo nonadecino[11,12-b]quinoline-8-carboxamide] were, in that order, 9.77 and 8.80.
As for `C=C[C@@H]1C[C@]1(NC(=O)[C@@H]1C[C@@H]2CN1C(=O)[C@H](C1CCCCC1)NC(=O)O[C@@H]1C[C@H]1CCCCCc1c(nc3ccccc3c1OC1CCOCC1)O2)C(=O)NS(=O)(=O)C1(C)CC1` [Example 253, (1aR,5S,8S,10R,22aR)-5-cyclohexyl-N-[(1R,2S)-2-ethenyl-1-{[(1-methylcyclopropyl)sulfonyl]carbamoyl}cyclopropyl]-3,6-dioxo-17-(tetrahydro-2H-pyran-4-yloxy)-1,1a,3,4,5,6,9,10,18,19,20,21,22,22a-tetradecahydro-8H-7,10-methanocyclopropa[18,19][1,10,3,6]dioxadiazacyclononadecino[11,12-b]quinoline-8-carboxamide], the pKi in test [1] (setting [3]) was 10.59; in test [1] (setting [4]), 9.58; in test [2] it was 7.96.
For `C=C[C@@H]1C[C@]1(NC(=O)[C@@H]1C[C@@H]2CN1C(=O)[C@H](C1CCCCC1)NC(=O)O[C@@H]1C[C@H]1CCCCCc1c(nc3ccccc3c1CN1CCN(C)CC1)O2)C(=O)NS(=O)(=O)C1(C)CC1` [Example 266, potassium ({(1R,2S)-1-[({(1aR,5S,8S,10R,22aR)-5-cyclohexyl-17-[(4-methylpiperazin-1-yl)methyl]-3,6-dioxo-1,1a,3,4,5,6,9,10,18,19,20,21,22,22a-tetradecahydro-8H-7,10-methanocyclopropa[18,19][1,10,3,6]dioxadiazacyclononadecino[11,12-b]quinolin-8-yl}carbonyl)amino]-2-ethenylcyclopropyl}carbonyl)[(1-methylcyclopropyl)sulfonyl]azanide], in that order: 10.70, 10.36 and 8.12.
Turning to `C=C[C@@H]1C[C@]1(NC(=O)[C@@H]1C[C@@H]2CN1C(=O)[C@H](C1CCCC1)NC(=O)O[C@@H]1CCC[C@H]1CC/C=C/Cc1c(nc3ccccc3c1OCC(F)(F)CO)O2)C(=O)NS(=O)(=O)C1CC1` [Example 73, (3aR,7S,10S,12R,21E,24aS)-7-cyclopentyl-N-{(1R,2S)-1-[(cyclopropylsulfonyl)carbamoyl]-2-ethenylcyclopropyl}-19-(2,2-difluoro-3-hydroxypropoxy)-5,8-dioxo-1,2,3,3a,5,6,7,8,11,12,20,23,24,24a-tetradecahydro-10H-9,12-methanocyclopenta[18,19][1,10,3,6]dioxadiazacyclononadecino[11,12-b]quinoline-10-carboxamide], the pKi was 9.85 in test [1] (setting [5]) and 8.60 in test [2].
For `C=C[C@@H]1C[C@]1(NC(=O)[C@@H]1C[C@@H]2CN1C(=O)[C@H](C(C)(C)C)NC(=O)O[C@@H]1C[C@H]1CCCCCc1c(nc3cc(C)ccc3c1OCCCN1CC[C@H](N(C)C)C1)O2)C(=O)NS(=O)(=O)C1(C)CC1` [Example 148, (1aR,5S,8S,10R,22aR)-5-tert-butyl-17-{3-[(3S)-3-(dimethylamino)pyrrolidin-1-yl]propoxy}-N-[(1R,2S)-2-ethenyl-1-{[(1-methylcyclopropyl)ulfonyl]carbamoyl}cyclopropyl]-14-methyl-3,6-dioxo-1,1a,3,4,5,6,9,10,18,19,20,21,22,22a-tetradecahydro-8H-7,10-methanocyclopropa[18,19] [1,10,3,6]dioxadiazacyclononadecino [11,12-b]quinoline-8-carboxamide], in that order: 10.19 and 9.13.
For `C=C[C@@H]1C[C@]1(NC(=O)[C@@H]1C[C@@H]2CN1C(=O)[C@H](C1CCCC1)NC(=O)O[C@@H]1CCC[C@H]1CC/C=C/Cc1c(nc3ccccc3c1OCCCO)O2)C(=O)NS(=O)(=O)C1CC1` [Example 72, (3aR,7S,10S,12R,21E,24aS)-7-cyclopentyl-N-{(1R,2S)-1-[(cyclopropylsulfonyl)carbamoyl]-2-ethenylcyclopropyl}-19-(3-hydroxypropoxy)-5,8-dioxo-1,2,3,3a,5,6,7,8,11,12,20,23,24,24a-tetradecahydro-10H-9,12-methanocyclopenta[18,19][1,10,3,6]dioxadiazacyclononadecino[11,12-b]quinoline-10-carboxamide], in that order: above 10.80 and 8.96.

As a reminder, the pKi is the Ki on a negative log10 scale, so that one unit is a factor of ten. Read a low pKi as a large Ki.
